One compound from patent US20230404887A1, “COMPOSITIONS TO LIMIT OR ELIMINATE THE PERCEPTION OF SWEAT MALODOR” (Firmenich SA, priority 2020, published 2023) can be followed below.

Experiment [1] is described as follows: Naive panelist evaluation of malodor reduction at mid-intensity dosages, passive evaporation in jars, against 4MOA. Details: species or system human. As to conditions: MO 4MOA dosage 7.5%, test compound dosage 1.5% in DiPG on cellulose pads; jar equilibrated 4 hours at room temperature; N 26 panelists. The protocol:
The performance of fragrancing products was evaluated by non-expert consumers under passive evaporation conditions. This was achieved by: 1) selecting target axillary malodor components, 2) delivering target malodor components and candidate malodor reducing materials (separately) to the noses of naïve panelists at a range of dosages established under passive evaporation conditions 3) having the panelists evaluate the overall intensity of each presented sample, 4) determining the average mid-intensity concentration for both the malodors and malodor reducing candidates of interest, 5) delivering samples containing a malodor component and a malodor reducing candidate of interest mixed together at the dosages determined in step 4, along with separate control samples containing either alone or neither, to the noses of panelists, 6) having panelists evaluate the malodor intensity for each presented sample, and 7) determining the degree of malodor reduction produced by the candidate malodor reducing material by comparing the malodor intensity ratings of the mixture to those of the control samples. […]

Experiment [2] can be described thus: Expert perfumer evaluation of malodor reduction, dynamic olfactometer, against 3M2HA. Set-up: species or system human. The protocol:
The effectiveness of perfuming materials in compositions to reduce the perception of, for example, axillary sweat malodors, was evaluated by an expert perfumer by 1) selecting target axillary malodor components, 2) delivering target malodor components and candidate malodor reducing materials to the nose of an expert perfumer at carefully controlled concentrations, 3) having the expert perfumer identify the concentration at which malodor reduction was obtained, and 4) rating the degree of reduction achieved at the concentration identified in step 3.
In this method, a dynamic multi-channel olfactometer was used to precisely deliver known gas phase concentrations of the test materials, using forced evaporation, into a stream of air emanating from a smelling port. The appropriate concentration of the malodor component was established prior to its being mixed with the candidate malodor reducing substance. The concentration was set at a concentration sufficient to produce an intensity of 0.5 (mid-intensity) on a scale of 0-1. The expert perfumer then dynamically adjusted the concentration of the candidate malodor reducing substance to determine the effective concentration, while maintaining a fixed concentration of the malodor component. Once the appropriate concentration had been determined, the expert perfumer evaluated the perception of the mixtures repeatedly over a period of several minutes, taking breaks in between sniffs to avoid adaptation to the components being tested, before providing a rating.
Tests were performed in a forced-evaporation, dynamic olfactometer, with malodor component concentrations held fixed at a mid-intensity. Ratings of effectiveness were based in the following scale: −2 (significant increase in malodor), −1 (slight increase in malodor), 0 (no effect), 1 (slight malodor reduction), 2 (good malodor reduction), 3 (complete malodor reduction). The malodor (MO) component abbreviations are 3H3MHA (3-methyl-3-hydroxyhexanoic acid), 3M2HA (3-methyl-2-hexenoic acid), 3M3SH (3-methyl-3-sulphanylhexanol).

`CCOC(=O)C12CCCC1C1CCC2C1` (stereo not drawn) [ethyl tricyclo[5.2.1.0.(2,6)]decane-2-carboxylate]: in experiment [1], the “Reduction (%)” value worked out at 43%. The “EFFECTIVE CONCENTRATION” value in experiment [2] (MO 3M2HA held fixed at mid-intensity (0.5), headspace concentration providing an effective level) came to 1.07E−01 micrograms/L AIR. Besides, in experiment [2] (MO 3M2HA held fixed at mid-intensity (0.5 on scale 0-1), rating of degree of malodor reduction at the effective concentration), the “EXPERT RATING” value was 3.
